Data: ChEMBL document CHEMBL2375247, “Synthesis and evaluation of 3-(benzylthio)-5-(1H-indol-3-yl)-1,2,4-triazol-4-amines as Bcl-2 inhibitory anticancer agents” (Bioorg Med Chem Lett, 2013)

Key:
[1] = tested on: Jurkat; experiment: Cytotoxicity against human Jurkat cells after 24 hrs by CellTitre-Blue assay; type: functional, cell-based
[2] = tested on: HeLa; experiment: Cytotoxicity against human HeLa cells after 72 hrs by MTT assay; type: functional, cell-based
[3] = Cytotoxicity against human KG1a cells after 24 hrs by CellTitre-Blue assay; type: functional, cell-based; settings: KG-1a
[4] = tested on: MDA-MB-231; experiment: Cytotoxicity against human MDA-MB-231 cells after 72 hrs by MTT assay; type: functional, cell-based; settings: MDA-MB-231, 72 h
[5] = biological target: Apoptosis regulator Bcl-2 (Homo sapiens, UniProt P10415); experiment: Competitive binding affinity to his-tagged Bcl-2 (unknown origin) after 1 hr by ELISA in presence of Bim peptide
Chain of Apoptosis regulator Bcl-2 (P10415 whole entry): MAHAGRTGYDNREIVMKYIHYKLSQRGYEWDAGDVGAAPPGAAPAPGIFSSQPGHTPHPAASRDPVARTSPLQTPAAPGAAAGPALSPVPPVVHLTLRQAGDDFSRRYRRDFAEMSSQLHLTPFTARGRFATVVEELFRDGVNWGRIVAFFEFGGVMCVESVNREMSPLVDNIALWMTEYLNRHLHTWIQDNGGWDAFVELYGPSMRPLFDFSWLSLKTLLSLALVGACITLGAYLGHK

IC50 [5] [µM]	Compound	IC50 [1] [µM]	IC50 [2] [µM]	IC50 [3] [µM]	IC50 [4] [µM]
	Nn1c(SCc2ccc(F)cc2)nnc1-c1c[nH]c2ccccc12	> 100	0.29	13.2	1.35
	COc1cccc(CSc2nnc(-c3c[nH]c4ccccc34)n2N)c1	> 100	1.73	12.9	15.6
1.43	Nn1c(SCc2cccc([N+](=O)[O-])c2)nnc1-c1c[nH]c2ccccc12	> 100	0.4	0.65	0.31
	Cc1ccc(CSc2nnc(-c3c[nH]c4ccccc34)n2N)cc1	> 100	5.38	> 100	10.5
	Nn1c(SCc2ccc([N+](=O)[O-])cc2)nnc1-c1c[nH]c2ccccc12	> 100	0.25	6.9	0.74
	Nn1c(SCc2ccc(Br)cc2)nnc1-c1c[nH]c2ccccc12	> 100	8	55.8	71.4
	COc1ccc(CSc2nnc(-c3c[nH]c4ccccc34)n2N)cc1	> 100	0.75	> 100	1.7
	Nn1c(SCc2ccccc2[N+](=O)[O-])nnc1-c1c[nH]c2ccccc12	> 100	2.52	20.8	9.52
	Nn1c(SCc2ccccc2)nnc1-c1c[nH]c2ccccc12	> 100	2.3	17.2	26.5
